Measurements taken from ChEMBL document CHEMBL2311358, “Inhibitors of HIV-1 attachment. Part 7: indole-7-carboxamides as potent and orally bioavailable antiviral agents” (Bioorg Med Chem Lett, 2013).
Values after ≈ are worked out from the molar mass of the structure shown. One block for each compound: values may come before it.

Columns and labels:
[1] = Permeability across human Caco2 cells at pH 6.5; type: ADME, cell-based; conditions: Caco-2, pH 6.5, read-out: permeability
[2] = Half life in human liver microsomes; type: ADME, Microsome
[3] = Cytotoxicity against human HeLa cells expressing CD4 assessed as cell viability after 6 days by XTT assay; type: cell-based
[4] = tested on: Human immunodeficiency virus 1; assay: Antiviral activity against HIV1 JRFL infected in human HeLa cells expressing CD4 and CCR5 assessed as inhibition of single-cycle viral replication by luciferase reporter gene assay; type: functional, organism-based; conditions: Human immunodeficiency virus 1, JRFL
[5] = Aqueous solubility of the compound in crystalline form at pH 6.5; type: physicochemical
[6] = Clearance in rat at 1 mg/kg, iv; type: ADME, organism-based; parameters: dose 1 mg/kg, route intravenous; conditions: in vivo
[7] = Oral bioavailability in rat at 5 mg/kg; type: ADME, organism-based; conditions: in vivo
[8] = tested on: Hepatocyte; assay: Cytotoxicity against human hepatocytes expressing CYP3A4, CYP2C9, CYP2C19, CYP2D6; type: ADME, cell-based
[9] = Solubility of the compound in amorphous form in PEG 400 at pH 6.5; type: physicochemical; conditions: PEG 400, pH 6.5
[10] = AUC in dog at 1 mg/kg, iv and 2.5 mg/kg, po; type: ADME, organism-based, Canis lupus familiaris; conditions: plasma
[11] = AUC in monkey at 1 mg/kg, iv and 2.5 mg/kg, po; type: ADME, organism-based, Macaca mulatta; conditions: rhesus monkey, plasma
[12] = AUC in rat at 1 mg/kg, iv and 5 mg/kg, po; type: ADME, organism-based; conditions: plasma
[13] = Cmax in monkey at 1 mg/kg, iv and 2.5 mg/kg, po; type: ADME, organism-based, Macaca mulatta; conditions: rhesus monkey, in vivo
[14] = Half life in monkey at 1 mg/kg, iv; type: ADME, organism-based, Macaca mulatta; parameters: dose 1 mg/kg, route intravenous; conditions: rhesus monkey, in vivo
[15] = Cmax in rat at 1 mg/kg, iv and 5 mg/kg, po; type: ADME, organism-based; conditions: in vivo
[16] = Oral bioavailability in monkey at 2.5 mg/kg; type: ADME, organism-based, Macaca mulatta; conditions: rhesus monkey, in vivo
[17] = Half life in dog at 1 mg/kg, iv; type: ADME, organism-based, Canis lupus familiaris; parameters: dose 1 mg/kg, route intravenous; conditions: in vivo
[18] = Inhibition of CYP450 (unknown origin); type: ADME, Homo sapiens
[19] = Cmax in dog at 1 mg/kg, iv and 2.5 mg/kg, po; type: ADME, organism-based, Canis lupus familiaris; conditions: in vivo
[20] = Half life in rat at 1 mg/kg, iv; type: ADME, organism-based; parameters: dose 1 mg/kg, route intravenous; conditions: in vivo
[21] = Plasma protein binding in human; type: ADME, cell-free; conditions: read-out: PPB (converted)
[22] = Oral bioavailability in dog at 2.5 mg/kg; type: ADME, organism-based, Canis lupus familiaris; conditions: in vivo

- EC50 [4]: 0.65 nM
SMILES: O=C(Nc1ccccn1)c1ccc(F)c2c(C(=O)C(=O)N3CCN(C(=O)c4ccccc4)CC3)c[nH]c12
- CC50 at 144 h [3]: 69000 nM

- EC50 [4]: 0.04 nM
SMILES: O=C(Nc1nc2ccccc2[nH]1)c1ccc(F)c2c(C(=O)C(=O)N3CCN(C(=O)c4ccccc4)CC3)c[nH]c12
- CC50 at 144 h [3]: 9200 nM

- EC50 [4]: 0.21 nM
SMILES: O=C(Nc1nc(-c2ccccc2)cs1)c1ccc(F)c2c(C(=O)C(=O)N3CCN(C(=O)c4ccccc4)CC3)c[nH]c12
- CC50 at 144 h [3]: > 300000 nM

- EC50 [4]: 1.08 nM
SMILES: O=C(NCCc1cc2ccccc2[nH]1)c1ccc(F)c2c(C(=O)C(=O)N3CCN(C(=O)c4ccccc4)CC3)c[nH]c12
- CC50 at 144 h [3]: > 300000 nM

- EC50 [4]: 2.64 nM
SMILES: CS(=O)(=O)NC(=O)c1ccc(F)c2c(C(=O)C(=O)N3CCN(C(=O)c4ccccc4)CC3)c[nH]c12
- CC50 at 144 h [3]: > 300000 nM

- EC50 [4]: 0.76 nM
SMILES: COc1ccc(C(N)=O)c2[nH]cc(C(=O)C(=O)N3CCN(C(=O)c4ccccc4)CC3)c12
- CC50 at 144 h [3]: 244000 nM

- Papp [1]: 3.9 ×10⁻⁶ cm/s
- half-life [2]: 0.667 h
- EC50 [4]: 0.76 nM
SMILES: CNC(=O)c1ccc(OC)c2c(C(=O)C(=O)N3CCN(C(=O)c4ccccc4)CC3)c[nH]c12
- CC50 at 144 h [3]: > 300000 nM

- Papp [1]: 5.1 ×10⁻⁶ cm/s
- half-life [2]: 0.417 h
- EC50 [4]: 0.14 nM
SMILES: C[C@@H]1CN(C(=O)c2ccccc2)CCN1C(=O)C(=O)c1c[nH]c2c(C(N)=O)ccc(F)c12
- CC50 at 144 h [3]: 141000 nM

- EC50 [4]: 0.75 nM
SMILES: CNC(=O)c1ccc(F)c2c(C(=O)C(=O)N3CCN(C(=O)c4ccccc4)C[C@H]3C)c[nH]c12
- CC50 at 144 h [3]: > 300000 nM

- EC50 [4]: 1.42 nM
SMILES: C[C@@H]1CN(C(=O)c2ccccn2)CCN1C(=O)C(=O)c1c[nH]c2c(C(N)=O)ccc(F)c12
- CC50 at 144 h [3]: > 300000 nM

- EC50 [4]: 3.37 nM
SMILES: O=C(Nc1ccncc1)c1ccc(F)c2c(C(=O)C(=O)N3CCN(C(=O)c4ccccc4)CC3)c[nH]c12
- CC50 at 144 h [3]: > 300000 nM

- Papp [1]: 11.2 ×10⁻⁶ cm/s
- half-life [2]: 1.35 h
- solubility [9]: 18000 µg/mL (≈ 41200 µM)
- AUC [10]: 7030 ng·h/mL
- AUC [11]: 3430 ng·h/mL
- AUC [12]: 4620 ng·h/mL
- Cmax [13]: 1330 ng/mL
- half-life [14]: 4.18 h
- Cmax [15]: 843 ng/mL
- bioavailability [16]: 70%
- EC50 [4]: 0.52 nM
- half-life [17]: 2.32 h
- IC50 [18]: > 90000 nM
- solubility ([5]; aqueous, read-out: solubility): 33 µg/mL (≈ 75.6 µM)
- Cmax [19]: 1560 ng/mL
- half-life [20]: 2.18 h
- fraction unbound [21]: 0.011
- clearance [6]: 12 mL/min/kg
- bioavailability [7]: 65%
- bioavailability [22]: 93%
SMILES: CNC(=O)c1ccc(F)c2c(C(=O)C(=O)N3CCN(C(=O)c4ccccc4)CC3)c[nH]c12
- IC50 [8]: > 57000 nM
- CC50 at 144 h [3]: > 300000 nM

- EC50 [4]: 2.69 nM
SMILES: NNC(=O)c1ccc(F)c2c(C(=O)C(=O)N3CCN(C(=O)c4ccccc4)CC3)c[nH]c12
- CC50 at 144 h [3]: > 300000 nM

- EC50 [4]: 12.8 nM
SMILES: NCCNC(=O)c1ccc(F)c2c(C(=O)C(=O)N3CCN(C(=O)c4ccccc4)CC3)c[nH]c12
- CC50 at 144 h [3]: 135000 nM

- EC50 [4]: 316 nM
SMILES: CN(C)CCNC(=O)c1ccc(F)c2c(C(=O)C(=O)N3CCN(C(=O)c4ccccc4)CC3)c[nH]c12
- CC50 at 144 h [3]: > 300000 nM

- EC50 [4]: 7.95 nM
SMILES: O=C(NCCN1CCOCC1)c1ccc(F)c2c(C(=O)C(=O)N3CCN(C(=O)c4ccccc4)CC3)c[nH]c12
- CC50 at 144 h [3]: > 300000 nM

- EC50 [4]: 11.2 nM
SMILES: CC(=O)N1CC(NC(=O)c2ccc(F)c3c(C(=O)C(=O)N4CCN(C(=O)c5ccccc5)CC4)c[nH]c23)C1
- CC50 at 144 h [3]: > 300000 nM

- EC50 [4]: 109 nM
SMILES: O=C(NCc1ccccc1)c1ccc(F)c2c(C(=O)C(=O)N3CCN(C(=O)c4ccccc4)CC3)c[nH]c12
- CC50 at 144 h [3]: > 300000 nM

Continued, compound first:

SMILES: O=C(C(=O)N1CCN(C(=O)c2ccccc2)CC1)c1c[nH]c2cccc(F)c12
- Papp [1]: 10 ×10⁻⁶ cm/s
- half-life [2]: > 1.67 h
- CC50 at 144 h [3]: > 300000 nM
- EC50 [4]: 1.24 nM
- solubility ([5]; buffer): 0.005 µg/mL (≈ 0.0132 µM)
- clearance [6]: 48 mL/min/kg

SMILES: O=C(Nc1nnn[nH]1)c1ccc(F)c2c(C(=O)C(=O)N3CCN(C(=O)c4ccccc4)CC3)c[nH]c12
- Papp [1]: < 1.5 ×10⁻⁶ cm/s
- half-life [2]: > 1.67 h
- CC50 at 144 h [3]: > 300000 nM
- EC50 [4]: 0.4 nM
- bioavailability [7]: < 1%

SMILES: O=C(Nc1nncs1)c1ccc(F)c2c(C(=O)C(=O)N3CCN(C(=O)c4ccccc4)CC3)c[nH]c12
- CC50 at 144 h [3]: 1740 nM
- EC50 [4]: 0.19 nM

SMILES: CCn1nccc1NC(=O)c1ccc(F)c2c(C(=O)C(=O)N3CCN(C(=O)c4ccccc4)CC3)c[nH]c12
- CC50 at 144 h [3]: 166000 nM
- EC50 [4]: 3.07 nM

SMILES: Cc1cc(NC(=O)c2ccc(F)c3c(C(=O)C(=O)N4CCN(C(=O)c5ccccc5)CC4)c[nH]c23)on1
- CC50 at 144 h [3]: > 300000 nM
- EC50 [4]: 0.94 nM

SMILES: O=C(NC1=NCCS1)c1ccc(F)c2c(C(=O)C(=O)N3CCN(C(=O)c4ccccc4)CC3)c[nH]c12
- CC50 at 144 h [3]: > 300000 nM
- EC50 [4]: 0.02 nM

SMILES: O=C(Nc1nccs1)c1ccc(F)c2c(C(=O)C(=O)N3CCN(C(=O)c4ccccc4)CC3)c[nH]c12
- Papp [1]: > 30 ×10⁻⁶ cm/s
- half-life [2]: 0.0683 h
- CC50 at 144 h [3]: 89000 nM
- EC50 [4]: 0.057 nM

SMILES: Cc1csc(NC(=O)c2ccc(F)c3c(C(=O)C(=O)N4CCN(C(=O)c5ccccc5)CC4)c[nH]c23)n1
- CC50 at 144 h [3]: 29000 nM
- EC50 [4]: 0.0058 nM

SMILES: O=C(Nc1nc2ccccc2s1)c1ccc(F)c2c(C(=O)C(=O)N3CCN(C(=O)c4ccccc4)CC3)c[nH]c12
- CC50 at 144 h [3]: 81000 nM
- EC50 [4]: 0.32 nM

SMILES: O=C(NCc1ccco1)c1ccc(F)c2c(C(=O)C(=O)N3CCN(C(=O)c4ccccc4)CC3)c[nH]c12
- CC50 at 144 h [3]: 71000 nM
- EC50 [4]: 1.3 nM

SMILES: O=C(NCc1cccs1)c1ccc(F)c2c(C(=O)C(=O)N3CCN(C(=O)c4ccccc4)CC3)c[nH]c12
- CC50 at 144 h [3]: 44000 nM
- EC50 [4]: 1.06 nM

SMILES: O=C(NS(=O)(=O)c1ccccc1)c1ccc(F)c2c(C(=O)C(=O)N3CCN(C(=O)c4ccccc4)CC3)c[nH]c12
- Papp [1]: 1.5 ×10⁻⁶ cm/s
- half-life [2]: > 1.67 h
- CC50 at 144 h [3]: > 300000 nM
- EC50 [4]: 0.29 nM
- bioavailability [7]: < 2%

SMILES: NC(=O)c1ccc(F)c2c(C(=O)C(=O)N3CCN(C(=O)c4ccccn4)CC3)c[nH]c12
- CC50 at 144 h [3]: > 300000 nM
- EC50 [4]: 7.59 nM

SMILES: O=C(Nc1cccnc1)c1ccc(F)c2c(C(=O)C(=O)N3CCN(C(=O)c4ccccc4)CC3)c[nH]c12
- CC50 at 144 h [3]: 132000 nM
- EC50 [4]: 9.09 nM

SMILES: NC(=O)c1ccc(F)c2c(C(=O)C(=O)N3CCN(C(=O)c4ccccc4)CC3)c[nH]c12
- Papp [1]: 2.4 ×10⁻⁶ cm/s
- half-life [2]: > 1.67 h
- CC50 at 144 h [3]: > 300000 nM
- EC50 [4]: 2.03 nM
- bioavailability [7]: 21%

SMILES: CN(C)C(=O)c1ccc(F)c2c(C(=O)C(=O)N3CCN(C(=O)c4ccccc4)CC3)c[nH]c12
- CC50 at 144 h [3]: > 300000 nM
- EC50 [4]: 407 nM

SMILES: CONC(=O)c1ccc(F)c2c(C(=O)C(=O)N3CCN(C(=O)c4ccccc4)CC3)c[nH]c12
- CC50 at 144 h [3]: > 300000 nM
- EC50 [4]: 3.83 nM

SMILES: COCCNC(=O)c1ccc(F)c2c(C(=O)C(=O)N3CCN(C(=O)c4ccccc4)CC3)c[nH]c12
- CC50 at 144 h [3]: 298000 nM
- EC50 [4]: 18.8 nM

SMILES: O=C(NCc1nc2ccccc2[nH]1)c1ccc(F)c2c(C(=O)C(=O)N3CCN(C(=O)c4ccccc4)CC3)c[nH]c12
- CC50 at 144 h [3]: > 300000 nM
- EC50 [4]: 6.73 nM

SMILES: COc1ncc(OC)c2c(C(=O)C(=O)N3CCN(C(=O)c4ccccc4)CC3)c[nH]c12
- CC50 at 144 h [3]: > 300000 nM
- EC50 [4]: 0.75 nM
